Consider two molecules from patent publication US10183019B2, “Treatment of cancer with dihydropyrazino-pyrazines” (Signal Pharmaceuticals, LLC, priority 2013, dated 2019).

Structures are written as SMILES.

In assay [1] the test system is HF2354 PDX (GBM neurosphere line HF2354). Briefly: Patient derived xenograft (PDX) survival study. It is filed as in vivo, nude mouse. The settings on record: HF2354 PDX in nude mice; 10 mg/kg oral gavage once a day, Monday through Friday. On the procedure:
FIG. 2: Kaplan-Meier survival analysis for HF2354 PDX line (end of study). Treatment schedule for survival (Rx) and target hit (TH) are indicated.
Immunocompromised mice (nude mouse NCRNU-M, TACONIC) were implanted with a GBM neurosphere line derived from fresh surgical specimens. The cell line was characterized as following:
Patient derived xenograft (PDX) treatments started four weeks prior to when the first animal was expected to become symptomatic. […] Control animals were administered vehicle alone. Target hit cohorts were treated with one dose of each compound and sacrificed 2 and 24 h later (n=3/group). As necessary, fluids and supplemental food were administered to ameliorate weight loss.
(In general: Xenograft models place foreign cells or tissue in a host animal.)

The subject of assay [2] is patient-derived GBM cell line 296. As to the kind of experiment: Gliomasphere Formation Assay. Format: cell-based. The settings on record: cell line 296, Recurrent, MGMT status −; 50% sphere formation vs DMSO control. How it is done:
(§1) Primary patient-derived GBM tumor samples were dissociated and plated under culture conditions (i.e. DMEM/F12 medium supplemented with B27, 20 ng/mL bFGF, 50 ng/mL EGF, penicillin/streptomycin, L-glutamine and 5 ug/mL heparin) that produce gliomaspheres. Cells were plated at a density of 50 cells per well and allowed to acclimate overnight at 37° C. The Dihydropyrazino-Pyrazine Compounds were added to the cultures on Day 2 and replenished every 7 days. EGF and FGF were also replenished every 7 days. The cells were fixed with PFA/methanol when the smallest sphere was greater than 60 microns, typically 3-5 weeks. The cells were fixed with PFA/methanol and the next day assessed for cell number, using for example, SYTO-9 fluorescent DNA dye. Plates were read 48 h later with a laser scanning imager.

The test system of assay [3] is patient-derived GBM cell line 308. As to the kind of experiment: Gliomasphere Formation Assay. It is filed as cell-based. The settings on record: cell line 308, Recurrent, MGMT Unkn/Highly Expressed; 50% sphere formation vs DMSO control. How it is done: as §1
For assay [4], the system named is patient-derived GBM cell line 245. Briefly: Gliomasphere Formation Assay. It is filed as cell-based. The following applies: cell line 245, Recurrent; 50% sphere formation vs DMSO control. How it is done: as §1
In assay [5] the test system is patient-derived GBM cell line 350. Briefly: Gliomasphere Formation Assay. The settings on record: cell line 350, Recurrent; 50% sphere formation vs DMSO control. It is filed as cell-based. How it is done:
as §1

The test system of assay [6] is patient-derived GBM cell line 217. Briefly: Gliomasphere Formation Assay. It is filed as cell-based. The following applies: cell line 217, Primary; 50% sphere formation vs DMSO control. How it is done: as §1
Assay [7] deals with patient-derived GBM cell line 250. Briefly: Gliomasphere Cell Number Assay. It is filed as cell-based. The settings on record: cell line 250, Recurrent, MGMT Unkn/Highly Expressed; 50% cell numbers vs DMSO control, Day 2 to Day 9; read-out: IC50 Cell Survival. How it is done: (§2) Gliomasphere Cell Number Assay. Primary patient-derived GBM tumor samples were dissociated and plated under culture conditions that produce gliomaspheres (i.e. DMEM/F12 medium supplemented with B27, 20 ng/mL bFGF, 50 ng/mL EGF, penicillin/streptomycin, L-glutamine and 5 ug/mL heparin). Cells were plated at a density of 5000 cells/well and allowed to acclimate overnight at 37° C. The Dihydropyrazino-Pyrazine Compounds were added to the cultures on Day 2 and cells were kept in culture until Day 9. On Day 9, the cells were fixed with PFA/methanol and the next day assessed for cell number, using for example, SYTO-9 fluorescent DNA dye. Plates were read 48 h later with a laser scanning imager.

Assay [8] relates to patient-derived GBM cell line 254. As to the kind of experiment: Gliomasphere Cell Number Assay. Format: cell-based. The following applies: cell line 254, Recurrent; 50% cell numbers vs DMSO control, Day 2 to Day 9; read-out: IC50 Cell Survival. How it is done:
as §2

For assay [9], the system named is patient-derived GBM cell line 157. As to the kind of experiment: Gliomasphere Cell Number Assay. Format: cell-based. The following applies: cell line 157, Primary, MGMT status −; 50% cell numbers vs DMSO control, Day 2 to Day 9; read-out: IC50 Cell Survival. On the procedure: as §2
Assay [10] deals with patient-derived GBM cell line 277. As to the kind of experiment: Gliomasphere Cell Number Assay. It is filed as cell-based. The settings on record: cell line 277, Secondary/Recurrent; 50% cell numbers vs DMSO control, Day 2 to Day 9; read-out: IC50 Cell Survival. How it is done: as §2
In assay [11] the test system is patient-derived GBM cell line 296. As to the kind of experiment: Gliomasphere Cell Number Assay. The following applies: cell line 296, Recurrent, MGMT status −; 50% cell numbers vs DMSO control, Day 2 to Day 9; read-out: IC50 Cell Survival. Format: cell-based. How it is done: as §2
Assay [12] has as its system patient-derived GBM cell line 336. As to the kind of experiment: Gliomasphere Cell Number Assay. It is filed as cell-based. The settings on record: cell line 336, Recurrent, MGMT status +; 50% cell numbers vs DMSO control, Day 2 to Day 9; read-out: IC50 Cell Survival. On the procedure: as §2
Assay [13] deals with patient-derived GBM cell line 206. As to the kind of experiment: Gliomasphere Cell Number Assay. The settings on record: cell line 206, Recurrent, MGMT Unkn/Highly Expressed; 50% cell numbers vs DMSO control, Day 2 to Day 9; read-out: IC50 Cell Survival. Format: cell-based. How it is done: as §2
In assay [14] the test system is patient-derived GBM cell line 347. Briefly: Gliomasphere Cell Number Assay. It is filed as cell-based. The following applies: cell line 347, Recurrent, MGMT status −; 50% cell numbers vs DMSO control, Day 2 to Day 9; read-out: IC50 Cell Survival. On the procedure: as §2
The subject of assay [15] is patient-derived GBM cell line 217. Briefly: Gliomasphere Cell Number Assay. It is filed as cell-based. The following applies: cell line 217, Primary; 50% cell numbers vs DMSO control, Day 2 to Day 9; read-out: IC50 Cell Survival. On the procedure:
as §2

The subject of assay [16] is patient-derived GBM cell line 378. Briefly: Gliomasphere Cell Number Assay. Format: cell-based. The following applies: cell line 378, Recurrent, MGMT status −; 50% cell numbers vs DMSO control, Day 2 to Day 9; read-out: IC50 Cell Survival. On the procedure:
as §2

Assay [17] concerns patient-derived GBM cell line 206. As to the kind of experiment: Combination effect of Compound 1 and TMZ on cell survival (fractional product). Format: cell-based. The following applies: 168 h, 7 days, read-out: % Actual inh. The source says:
(§3) TMZ is an alkylating agent that delivers a methyl group to the purine bases of DNA (O^6-guanine; N^7-guanine and N^3-adenine). The cytotoxic lesion, O^6-methylguanine (O^6-MeG), caused by TMZ can be directly removed by methylguanine methyltransferase (MGMT) via direct repair and can also activate mechanisms of mismatch repair (MMR). Futile cycles of MMR lead to the formation of double-stranded DNA breaks and activation of the DNA-PK mediated mechanisms of double-stranded break repair.
(§4) Tumorspheres grown under tumorsphere culture conditions were harvested, dissociated into single cells, and plated at 5,000 cells/well in 96-well plates. […] When the value of the column % actual inhibition divided by % inhibition calculated based on summation is >1=synergism, ˜1=summation, <1=antagonism.

Assay [18] concerns patient-derived GBM cell line 217. The assay is described as above. Format: cell-based. The following applies: 168 h, 7 days, read-out: % Actual inh.
From the text: as §3, §4

With `CO[C@H]1CC[C@H](N2C(=O)CNc3ncc(-c4ccc(C(C)(C)O)nc4)nc32)CC1` [Compound 2, 7-(6-(2-hydroxypropan-2-yl)pyridin-3-yl)-1-((1r,4r)-4-methoxycyclohexyl)-3,4-dihydropyrazino-[2,3-b]pyrazin-2(1H)-one], the “survival (Kaplan-Meier)” value in assay [1] is “No effect in survival”. Further, the IC50 – broadly, the concentration that gives 50% inhibition – in assay [2] was 1.7 µM; in [3], 0.0767 µM; in [4], 0.0651 µM; in assay [5], 0.243 µM; in assay [6], 0.0689 µM; in assay [7] it was 0.0507 µM. Moreover, the IC50 in assay [8] is 0.216 µM; in [9], 0.171 µM; in assay [10], 0.106 µM; in assay [11], 0.257 µM; in assay [12] it was 0.866 µM; in [13], 0.118 µM. For the same molecule, the IC50 in [14] came out at 0.173 µM; in assay [15], 0.0963 µM; in assay [16], 0.157 µM.

Turning to `Cn1nnc2c(C(N)=O)ncn2c1=O` [TMZ, Temozolomide], the figures for the inhibition at 25 µM in assay [17] (TMZ 25 μM alone) and in assay [18] (TMZ 25 μM alone) were 11.4% and 69%, respectively. The values for the inhibition at 50 µM in assay [17] (TMZ 50 μM alone) and in assay [18] (TMZ 50 μM alone) were 0% and 73%, respectively. Also, the inhibition at 100 µM in assay [17] (TMZ 100 μM alone) was determined as 0%; in assay [18] (TMZ 100 μM alone), 77%. In addition, in [17] (TMZ 200 μM alone), the inhibition at 200 µM stood at 4.3%.
